Measurements from patent publication US8202835B2, “Disease treatment via antimicrobial peptides or their inhibitors” (priority 2005, dated 2012).
Entries after “also recorded” stand apart in the source; their conditions may differ. No end group written: not given here.

Tests used:
BALB/C mice = assay: DSS induced acute colitis model of IBD, disease activity index (DAI); assay type: in vivo, mouse; conditions: DSS treated control group average DAI 3; score 0 to 4
Description: BALB/C mice were induced with acute colitis by feeding dextran sulfate sodium (DSS) in drinking water for one week and synthetic cathelicidin was administered intrarectally daily during colitis induction.
Mice were induced with acute colitis by being given 3% DSS (molecular weight, 36-50 kDa) according to the method described by Liu et al. (Carcinogenesis 24:1407-1413, 2003). The 3% DSS was given in their drinking water liar 7 days (from Day 0 to Day 7). Normal control mice received tap water throughout the experiment.
Intrarectal administration of AMPs Cathelicidin mCRAMP (5 mg/Kg/day), beta-Defensin 1 (1 mg/Kg/day), beta-Defensin 3 (1 mg/Kg/day), Elafin and SLPI, CCL20 (1 mg/Kg/day), lysozyme (3 mg/Kg/day)), as well as bactericidal/permeability increasing protein (1 mg/Kg/day). The mice were divided into two groups of 10, one receiving ordinary tap water and the disease group with DSS treatment. The peptides were intrarectally administrated once daily for 10 consecutive days beginning 3 dayd before DSS treatment. The PBS control mice received equal volumes of PBS (i.e., 100 ul) intrarectally.
In all tested animals, body weight, stool consistency, and presence of gross bleeding were recorded. Disease activity index (DAI) was calculated according to the method described by Cooper et al. (Lab Invest 69:238-249, 1993.). In brief, body weight loss, stool consistency, and bleeding were scored from 0 to 4, and DAI is the combined score divided by 3.
In addition, a parallel experiment using mCRAMP (0.8 mg/Kg) administered by injection into the peritoneum 3 times a week beginning at one week before DSS treatment. In this experiment, two groups of mice (10 in each) were compared were the control group received saline during DSS treatment while the treatment group received mCRAMP (0.8 mg/Kg) intraperitonculy 3 times a week.
AMPs were applied both individually or together in combination.

human psoriatic skin = assay: Human in-vivo psoriatic lesion treatment; conditions: blind trial; for skin psoriatic lesion, 5 days treatment: Cathelicidin 10 ug/ml applied to lesions in a human subject
Description: Human in-vivo psoriatic lesion treatment: Cathelicidin 10 ug/ml or human beta defensin-2 diluted in PBS containing 0.1% BSA, or buffer carrier was applied to lesions in a human subject in a blind trial.

BETATC beta cell line = assay: Thymidine incorporation cell proliferation assay; assay type: cell-based, mouse; conditions: LL-37 2 microgram/ml, 3.5 days, vs PBS control
Description: Murine beta cell line were treated for 3.5 days with LL-37 at 2 microgram/ml (red/dark bars) and compared to PBS control ([…]). Cell proliferation was estimated by measuring [3(H)]-thymidine incorporation and was expressed as percent of control untreated cells. A representative experiment is shown.
Antimicrobial peptides (AMPs): The antimicrobial peptides human cathelicidin LL-37: […] (SEQ ID NO: 14) was obtained from AnaSpec, USA (Catalogue numbers: 61302). Cathelicidin at 2 ug/ml was added to the plate and compared with control.
Thymidine incorporation cell proliferation assay: Cell proliferation was evaluated by measuring [3(H)]-thymidine incorporation into DNA. Cells were pulsed with [3(H)]-thymidine (1 microcurie/mL, ICN, Irvine, Calif.) for 1 hour, at 37 degrees centigrade. After incubation, cells were washed 3 times with PBS, incubated for 15 minutes at room temperature in 5% trichloroacetic acid and solubilized in 1% triton X-100. The radioactivity incorporated into the cells was counted in the [3(H)]-window of a Tricarb liquid scintillation counter. Mean values were determined from measurements of triplicate samples under each experimental condition for each experiment. Thymidine incorporation was determined as number of disintegrations per minute (DPM) per mg of protein.

[1] = Infection and immunity, November 1999, p. 6084-6089; cited from earlier work

Alpha-Defensin 6: antimicrobial peptide reported in the DSS colitis model (AFTCHCRRSCYSTEYSYGTCTVMGINHRFCCL; ends and bridges not checked; cysteine pairing not given here; UniProt Q01524 69-100, looked up)
average DAI (disease activity index) (BALB/C mice): 1.8

LLGDFFRKSKEKIGKEFKRIVQRIKDFLRNLVPRTES [LL-37]
skin psoriatic lesion, 5 days treatment (human psoriatic skin): slight improvement
cell proliferation ([3(H)]-thymidine incorporation) (BETATC beta cell line): significant BETATC beta cell line proliferation; also recorded: slight increase in cell proliferation
half-life in blood of humans [1]: approximately 3.4 days

SKEKIGKEFKRIVQRIKDFLRNLVPRTES (listed as Homo sapiens) [SK29, fragment cathelicidin SK29]
skin psoriatic lesion, 5 days treatment (human psoriatic skin): slight improvement

beta-Defensin 3: antimicrobial peptide tested in the DSS colitis model (GIINTLQKYYCRVRGGRCAVLSCLPKEEQIGKCSTRGRKCCRRKK; ends and bridges not checked; cysteine pairing not given here; UniProt P81534 23-67, looked up)
average DAI (disease activity index) (BALB/C mice): 1.8

human beta defensin-2: Human Beta-Defensin-2 peptide purchased from Sigma-Aldrich (GIGDPVTCLKSGAICHPVFCPRRYKQIGTCGLPGTKCCKKP; ends and bridges not checked; cysteine pairing not given here; UniProt O15263 24-64, looked up) [reference compound]
skin psoriatic lesion, seven week course of treatment (human psoriatic skin; applied to lesions in a human subject, FIG. 20): worsening of skin psoriatic legion
average DAI (disease activity index) (BALB/C mice): 1.8

B1: Alpha-Defensin 5: antimicrobial peptide reported in the DSS colitis model (peptide, UniProt Q01523 20-94, looked up)
Defensin alpha 5: ESLQERADEATTQKQSGEDNQDLAISFAGNGLSALRTSGSQARATCYCRTGRCATRESLSGVCEISGRLYRLCCR
modifications: Defensin-5
notes: antimicrobial peptide reported in the DSS colitis model
average DAI (disease activity index) (BALB/C mice): 1.8
